Measurements: patent US6368788B1 (priority 1987, dated 2002)
Where “and” joins values, the source holds several entries; their conditions need not be identical. Equal entries are not always repeated. Entries after “also recorded” stand apart in the source; their conditions may differ. Where two headings read alike, the source gives them in different places. Marks after values point to notes of the source that are not given here.

Legend:
[1] = Chronic liver disease: jaundice and systemic toxicity; parameters: species or system human; conditions: in vivo
Mycobacterium leprae = type: in vivo, human
[2] = Allergies (hayfever protocol); parameters: species or system human; conditions: in vivo
Protocol: Twenty nine patients (29) with various diagnosed allergies were treated on a daily basis for 5-7 days with L-Glu-L-Trp at a dose of […] delivered im or by the intranasal route. Seventeen patients (17) in the control group received conventional therapy.

Dengue virus = experiment: Hemorrhagic Dengue Fever Protocol A; type: in vivo, human
Protocol: L-Glu-L-Trp was administered to 21 patients with hemorrhagic Dengue Fever, and 28 patients receiving conventional therapy served as controls. L-Glu-L-Trp was administered im single daily doses of 100 μg on each of 5 consecutive days as an adjunct to ongoing conventional therapy. […] The investigators also observed that L-Glu-L-Trp treated patients experienced a reduction in muscle and bone pain. Immunological indices in peripheral blood were also normalized.
Forty nine patients (20-30 years of age; Kinh nationality) with diagnosed Dengue Fever were entered into the trial. The patients were referred to the 175th Military Hospital in Ho Chi Minh City at the time of an epidemic of Dengue fever in the South […] Republic of Vietnam. Diagnosis was based on the criteria recommended by the World Health Organization (1986) using medical histories, and clinical and laboratory data. Serological analyses were conducted at the Arbovirus Infectious Diseases Laboratory of the Pasteur Institute in Ho Chi Minh City. […] Dyspeptic toxicosis, i.e., nausea and vomiting were rarely encountered (15% and 11.7%, respectively). Joint and muscle pains were pronounced, most commonly involving the spinal joints in the lumbar region (96.6%), joints of the pelvic girdle (82.2%), the ulnar joints (53.4%), as well as, the muscles of the lumbar (69%) and abdominal regions (69%). Exanthema (40.7%) and lymphadenopathy (46.7%) were evident in certain patients. […] Leukocytes during peak episodes of disease were recorded to be 4.60±0.17×10^9/L, and the absolute number of lymphocytes varied widely from 0.95 to 4.29×10^9/L.
Group 1 received conventional maintenance therapy consisting of detoxifying preparations and methods, e.g., fluids, fever control agents and the like. Group 2 received combination therapy, i.e., maintenance therapy and L-Glu-L-Trp, but only during periods of acute disease activity. L-Glu-L-Trp was administered at a dosage of 500 μg. The efficacy of the respective treatment protocols was evaluated by recording the most frequently used clinical indicia of Dengue disease activity: namely, the clinical indicia recorded in TABLE 45.

Staphylococcus aureus [3] = experiment: Survival after acute peritonitis with LD100 dose of antibiotic-resistant Staphylococcus aureus, prophylactic treatment; conditions: for Percentage Survivors: ip prophylactic
[4] = tested on: respiratory viral infections; experiment: Nose, ear and throat infections (acute respiratory disease); parameters: species or system human; conditions: in vivo
Protocol: One hundred eighty six subjects (186) with diagnosed acute respiratory disease, including upper airway diseases and viral infections, were treated with L-Glu-L-Trp. A control group consisted of 87 untreated subjects. L-Glu-L-Trp was administered daily im or intranasally at a dosage of 100 μg on each of 3-7 consecutive days. […] Secondary infectious complications were diminished in the treated individuals, and the length of time that medical follow-up was required was also diminished.

Staphylococcus aureus [5] = experiment: Survival after Staphylococcus aureus peritonitis, therapeutic treatment 1 hour after challenge; type: in vivo, mice; conditions: for Percentage Survivors: ip therapeutic 1 hour after challenge
Protocol: EXAMPLES 32-34, above, test substance (i.e., L-Glu-L-Trp alone or in combination with antibiotic, or antibiotic alone) was injected sc, ip, po one hour after the bacterial challenge.

[6] = Combination L-Glu-L-Trp Therapy (n = 21)
[7] = 24 hours, Glu-Trp dose 10 μg/kg (alone or + Ampicillin)
[8] = 24 hours, Glu-Trp dose 100 μg/kg (alone or + Ampicillin)
[9] = 48 hours, Glu-Trp dose 10 μg/kg (alone or + Ampicillin)
[10] = 48 hours, Glu-Trp dose 100 μg/kg (alone or + Ampicillin)
[11] = 72 hours, Glu-Trp dose 10 μg/kg (alone or + Ampicillin)
[12] = 72 hours, Glu-Trp dose 100 μg/kg (alone or + Ampicillin)

Substance: L-Glu-L-Trp
- Seropositive patients with a positive response to therapy [1]: 21 of the 29
- Seropositive patients with no detectable change [1]: 8
- Mean % responsive PBL (blast cells), Con-A (Mycobacterium leprae; 5-7 days): 22.5 ± 4.0%
- Mean % responsive PBL (blast cells), PHA (Mycobacterium leprae; 5-7 days): 28.7 ± 3.8%
- Additional decrease in area of ulceration, primary NTU (Mycobacterium leprae; in vivo): 23.2% and 22%
- Blast cells responsive to synthetic leprosy antigen (Mycobacterium leprae; in vivo): 2.86±0.9%
- Clinical outcome (Mycobacterium leprae; in vivo): resolution of dermal leprotic lesions
- Decrease in area of ulceration, primary NTU (Mycobacterium leprae; in vivo): 40%
- Decrease in area of ulceration, recurrent ulcers (Mycobacterium leprae; in vivo): 22.6%
- EI change versus Before (↓) (Mycobacterium leprae; in vivo): (↓33%)
- Healing time, primary NTU (Mycobacterium leprae; in vivo): 3-6 weeks
- Healing time, secondary recurrent NTU (Mycobacterium leprae; in vivo): 4-6 weeks
- Increase of blast responsiveness of patient lymphocytes to Con-A (Mycobacterium leprae; in vivo): 1.6 fold
- Increase of blast responsiveness of patient lymphocytes to PHA (Mycobacterium leprae; in vivo): 1.8 fold
- Increase of lymphocytes responsive to synthetic leprosy antigen (Mycobacterium leprae; in vivo): about 1.6 fold
- Lepromin skin test conversion (Mycobacterium leprae; in vivo): four subjects with negative skin tests for lepromin at the beginning of therapy turned positive
- Mean % responsive PBL (blast cells), Con-A (Mycobacterium leprae; in vivo): 36.9 ± 1.28%
- Mean % responsive PBL (blast cells), PHA (Mycobacterium leprae; in vivo): 22.3 ± 1.43%
- OKT 4 (%) (Mycobacterium leprae; in vivo): 40.67 ± 1.44% and 43.25 ± 1.91%
- OKT 4/OKT 8 (Mycobacterium leprae; in vivo): 1.61 ± 0.08 and 1.68 ± 0.32
- OKT 8 (%) (Mycobacterium leprae; in vivo): 25.56 ± 1.15% and 27.25 ± 3.42%
- OKT 11 (%) (Mycobacterium leprae; in vivo): 72.22 ± 1.52% and 76.25 ± 0.87%
- Rate of healing, primary NTU (Mycobacterium leprae; in vivo): 6.34 mm^2/day
- Rate of healing, recurrent NTU (Mycobacterium leprae; in vivo): 5.91 mm^2/day
- Romanovsky Staining (Mycobacterium leprae; in vivo): regenerative: lst or 2nd phase; also recorded: regenerative: 2nd or 3rd. phase,; also recorded: regenerative: 3rd. phase/healing;; also recorded: degenerative cells &
- Clinical outcome [2]: disappearance of allergic reactions
- Duration of Symptom: Eye muscle pain (Dengue virus; [6]): 6.6 ± 0.8 h
- Duration of Symptom: Fever, At day 2-4 of illness (Dengue virus; [6]): 4.7 ± 0.2 h
- Duration of Symptom: Fever, At day 2-6 of illness (Dengue virus; [6]): 5.2 ± 0.3 h
- Duration of Symptom: Headache (Dengue virus; [6]): 8.1 ± 0.9 h
- Duration of Symptom: Hepatomegally (Dengue virus; [6]): 11.3 ± 0.8 h
- Duration of Symptom: Insomnia (Dengue virus; [6]): 7.1 ± 0.7 h
- Duration of Symptom: Joint pain (Dengue virus; [6]): 7.4 ± 0.7 h
- Duration of Symptom: Loss of appetite (Dengue virus; [6]): 7.5 ± 0.8 h
- Duration of Symptom: Lumbar pain (Dengue virus; [6]): 8.7 ± 0.7 h
- Duration of Symptom: Skeletal muscle pain (Dengue virus; [6]): 7.7 ± 1.1 h
- Duration of Symptom: Splenomegally (Dengue virus; [6]): 9.6 ± 0.7 h
- Duration of Symptom: Waist/Pelvic girdle pain (Dengue virus; [6]): 8.1 ± 0.8 h
- Duration of Symptom: Weakness (Dengue virus; [6]): 9.3 ± 0.8 h
- Clinical outcome (Dengue virus; in vivo): decrease in fever, reduction of toxic symptoms
- Survival by time of single prophylactic ip injection (Staphylococcus aureus [3]; 24 hours before challenge): more surviving animals than if pretreatment was at 1, 48, or 72 hrs
- Percentage Survivors (Staphylococcus aureus [3]; 24 hours, Glu-Trp dose 0.01 μg/kg (alone or + Ampicillin)): 31.5%
- Percentage Survivors (Staphylococcus aureus [3]; 24 hours, Glu-Trp dose 0.1 μg/kg (alone or + Ampicillin)): 33.3%
- Percentage Survivors (Staphylococcus aureus [3]; 24 hours, Glu-Trp dose 1 μg/kg (alone or + Ampicillin)): 50.0* %
- Percentage Survivors (Staphylococcus aureus [3]; [7]): 83.3* %
- Percentage Survivors (Staphylococcus aureus [3]; [8]): 88.9* %
- Percentage Survivors (Staphylococcus aureus [3]; 24 hours, dose cell empty (line after 100 μg/kg)): 83.3* %
- Percentage Survivors (Staphylococcus aureus [3]; 48 hours, Glu-Trp dose 0.01 μg/kg (alone or + Ampicillin)): 3.7%
- Percentage Survivors (Staphylococcus aureus [3]; 48 hours, Glu-Trp dose 0.1 μg/kg (alone or + Ampicillin)): 0%
- Percentage Survivors (Staphylococcus aureus [3]; 48 hours, Glu-Trp dose 1 μg/kg (alone or + Ampicillin)): 27.8* %
- Percentage Survivors (Staphylococcus aureus [3]; [9]): 50.0* %
- Percentage Survivors (Staphylococcus aureus [3]; [10]): 61.1* %
- Percentage Survivors (Staphylococcus aureus [3]; 48 hours, dose cell empty (line after 100 μg/kg)): 72.2* %
- Percentage Survivors (Staphylococcus aureus [3]; 72 hours, Glu-Trp dose 0.01 μg/kg (alone or + Ampicillin)): 0%
- Percentage Survivors (Staphylococcus aureus [3]; 72 hours, Glu-Trp dose 0.1 μg/kg (alone or + Ampicillin)): 0%
- Percentage Survivors (Staphylococcus aureus [3]; 72 hours, Glu-Trp dose 1 μg/kg (alone or + Ampicillin)): 5.6%
- Percentage Survivors (Staphylococcus aureus [3]; [11]): 33.3* %
- Percentage Survivors (Staphylococcus aureus [3]; [12]): 50.0* %
- Percentage Survivors (Staphylococcus aureus [3]; 72 hours, dose cell empty (line after 100 μg/kg)): 55.6* %
- Survival (Staphylococcus aureus [3]; ip or im routes): increased the percentage of animals surviving challenge with a lethal number of Staphylococcus aureus
- Survival, multiple treatment regimen at 72, 48 and 24 hrs (Staphylococcus aureus [3]; single agent or combined therapy): significantly higher (p<0.05) survival than a single treatment dose
- Clinical outcome [4]: milder course of respiratory viral infections
- Percentage Survivors (Staphylococcus aureus [5]; 24 hours, Glu-Trp dose 0.01 μg/kg): 16.7%
- Percentage Survivors (Staphylococcus aureus [5]; 24 hours, Glu-Trp dose 0.1 μg/kg): 5.6*† %
- Percentage Survivors (Staphylococcus aureus [5]; 24 hours, Glu-Trp dose 1 μg/kg): 27.8† %
- Percentage Survivors (Staphylococcus aureus [5]; [7]): 66.7* %
- Percentage Survivors (Staphylococcus aureus [5]; [8]): 66.7* %
- Percentage Survivors (Staphylococcus aureus [5]; 48 hours, Glu-Trp dose 0.01 μg/kg): 0%
- Percentage Survivors (Staphylococcus aureus [5]; 48 hours, Glu-Trp dose 0.1 μg/kg): 0† %
- Percentage Survivors (Staphylococcus aureus [5]; 48 hours, Glu-Trp dose 1 μg/kg): 5.6† %
- Percentage Survivors (Staphylococcus aureus [5]; [9]): 38.9* %
- Percentage Survivors (Staphylococcus aureus [5]; [10]): 55.6* %
- Percentage Survivors (Staphylococcus aureus [5]; 72 hours, Glu-Trp dose 0.01 μg/kg): 0%
- Percentage Survivors (Staphylococcus aureus [5]; 72 hours, Glu-Trp dose 0.1 μg/kg): 0%
- Percentage Survivors (Staphylococcus aureus [5]; 72 hours, Glu-Trp dose 1 μg/kg): 0† %
- Percentage Survivors (Staphylococcus aureus [5]; [11]): 16.7* %
- Percentage Survivors (Staphylococcus aureus [5]; [12]): 33.3* %
- Survival (Staphylococcus aureus [5]; ip, 1 hour after challenge): dose-response relationship between the amount of L-Glu-L-Trp administered ip and the survival of animals
